US8377967B2, “Piperidine derivative” (Nippon Zoki Pharmaceutical Co., Ltd., priority 2008, dated 2013)
pIC50: −log10 of the molar value. Counter-ions that a name gives are not always drawn.

Experiments:
[1] = biological target: T1, cerebral H1 receptor (Mus musculus, UniProt P70174); experiment: Murine cerebral H1 receptor occupying content (ex vivo); assay type: in vivo
T1 construct: the entire brain, except for cerebellum and medulla oblongatae, was rapidly excised; from tissue; host or cells: brain homogenate (without cerebellum and medulla oblongata) of orally dosed ICR male mice
Protocol: A 6-week-old ICR male mouse was previously fed for one week or more by allowing the mouse to take a solid feed and tap water ad libitum, under the environment setting of a temperature of 22° C., humidity of 55% and an artificial illumination of 12 hours a day, and the mouse was fasted overnight to be used for the experiment. A substance to be tested was dissolved with water for injection or suspended in 0.5% carboxymethyl cellulose solution, and the solution or suspension was orally administered to the mouse (dose volume: 0.1 mL/10 g body weight). After 1 hour from the oral administration, the mouse was decapitated, and the entire brain, except for cerebellum and medulla oblongatae, was rapidly excised. The excised brain tissue was homogenized with Polytron (manufactured by Kinematica) in an ice-cooled 50 mmol/L phosphate buffered saline (pH 7.4, 100 mg/1.9 mL).
To a test tube for reaction (TPX-Tube) were added 180 μL of the brain homogenate, and 10 μL of ^3H-pyrilamine solution (final concentration: 2 nmol/L) and 10 μL of a non-labeled pyrilamine solution (final concentration: 200 μmol/L) or a 50 mmol/L phosphate buffered saline, and the mixture was incubated at room temperature for 45 minutes, and 2.0 mL of an ice-cooled, 50 mmol/L phosphate buffered saline was then added thereto to stop the reaction. The reaction mixture was filtered with a GF/B filter (manufactured by […]), and the […] was placed in a vial and dried overnight at 60 degrees. After drying, 10 mL of a scintillator (AL-1, toluene-based, manufactured by DOJINDO LABORATORIES) was added to the product, and the disintegration per minute (dpm) was measured with a liquid scintillation counter (manufactured by Packard, U.S.A., TRI-CARB 2700TR) (5 minutes/vial).

[2] = test system: histamine-induced vascular hyperpermeability reaction; experiment: Rat histamine-induced vascular hyperpermeability reaction (in vivo antihistamine action); conditions: SD male rat, oral administration 1 hour before intracutaneous histamine, leaked Evans Blue pigment
Protocol: An SD male rat (SPF) of 180 g in weight was previously fed for one week or more by allowing the rat to take a solid feed and tap water ad libitum, under the environment setting of a temperature of 22° C., humidity of 55% and an artificial illumination of 12 hours a day (light phase 8 am to 8 pm), and the rat was fasted overnight to be used for the experiment. Histamine•dihydrochloride (hereinafter referred to as histamine) and Evans Blue were used by dissolving each in physiological saline upon use. A substance to be tested was dissolved in water for injection or suspended in 0.5% carboxymethyl cellulose sodium, and the rat was orally administered with the solution or suspension (dose volume: 5 mL/kg body weight). After 1 hour from the administration, the physiological saline and the histamine solution were each intracutaneously injected to two locations (20 μg/0.05 ml/location) each on a back part of the rat of which hair was sheared with an electric clipper while anesthetizing with an ether. A 0.5% Evans Blue-containing physiological saline was injected intravenously to the tail of the rat (1 mL/200 g body weight) immediately before the intracutaneous injection of the histamine.
After 30 minutes, the animal was decapitated, and allowed to bleed lethally, and the skin was removed to measure an amount of leaked pigment in the blue-stained portion. The measurement of the amount of leaked pigment was carried out as follows. Skins of the pigment leaking site were cut out at two locations, 1 mL of a 2 mol/L aqueous potassium hydroxide solution was added thereto in a test tube, and the test tube was allowed to stand overnight at 37° C. to dissolve. Thereafter, 6 mL of a 1:3 mixed solution of 0.67 mol/L phosphoric acid and acetone was added to the solution, and the mixture was vigorously shaken for 10 minutes. Thereafter, the mixture was filtered, and the absorbance of the filtrate at 620 nm was measured. The absorbance obtained from the two locations of the sites injected with physiological saline, as blank value, was used for a compensation. The amount of leaked pigment was calculated from the calibration curve of Evans Blue at 620 nm.

[3] = biological target: human histamine H1 receptor (Homo sapiens, UniProt P35367); experiment: In vitro human histamine H1 receptor binding experiment ([3H]pyrilamine); conditions: HEK293A cells stably expressing human histamine H1 receptor, [3H]pyrilamine 3 nmol/L, room temperature 60 minutes
Protocol: Recombinant human histamine H1 receptor plasmid (prepared by Invitrogen) was transfected to HEK293A cells with Lipofectamine 2000 (manufactured by Invitrogen). Cells stably expressing human histamine H1 receptor were screened with Geneticin (manufactured by Invitrogen). The cells were continued to be cultured using a Dulbecco's Modified Eagle Medium containing 10% fetal bovine serum, 0.1 mmol/L MEM Non-Essential Amino Acids Solution, 2 mmol/L L-glutamine and 0.7 mg/mL Geneticin in a 5% CO2 incubator at 37° C. The cells stably expressing human histamine H1 receptor were prepared using 50 mmol/L Tris-HCl (pH 7.5) (hereinafter referred to as buffer) containing 0.1% bovine serum albumin, so as to have a concentration of 3×10^6 cells/mL, to give a cell sample preparation. Fifty microliters of the buffer, 50 μl of a test substance solution at various concentrations, and 50 μL of [^3H]pyrilamine solution (final concentration: 3 nmol/L) were added to each of the wells on the 96-well plate, and stirred, and 100 μL of the cell sample preparation was then added thereto (at a concentration of 3×10^5 cells/well) to initiate the reaction.
The cells were incubated at room temperature for 60 minutes, and then filtered on UniFilter GF/C plate (manufactured by Packard) immersed in 0.5% polyethyleneimine using a cell harvester (IH-110, manufactured by INNOTECH CORPORATION), to stop the reaction, and the plate was washed with the buffer. The plate after washing was sufficiently dried, and 20 μL of a scintillator (MaxiLight, manufactured by Hidex) was added thereto, and count per minute (cpm) was measured with a multi-labeled microplate reader (Plate Chameleo II, manufactured by Hidex). The nonspecific binding was cpm in a case where 30 μmol/L pyrilamine was added. The experiments were carried out at n=3, and at least repeated 3 times.

Chain of human histamine H1 receptor (P35367 whole entry): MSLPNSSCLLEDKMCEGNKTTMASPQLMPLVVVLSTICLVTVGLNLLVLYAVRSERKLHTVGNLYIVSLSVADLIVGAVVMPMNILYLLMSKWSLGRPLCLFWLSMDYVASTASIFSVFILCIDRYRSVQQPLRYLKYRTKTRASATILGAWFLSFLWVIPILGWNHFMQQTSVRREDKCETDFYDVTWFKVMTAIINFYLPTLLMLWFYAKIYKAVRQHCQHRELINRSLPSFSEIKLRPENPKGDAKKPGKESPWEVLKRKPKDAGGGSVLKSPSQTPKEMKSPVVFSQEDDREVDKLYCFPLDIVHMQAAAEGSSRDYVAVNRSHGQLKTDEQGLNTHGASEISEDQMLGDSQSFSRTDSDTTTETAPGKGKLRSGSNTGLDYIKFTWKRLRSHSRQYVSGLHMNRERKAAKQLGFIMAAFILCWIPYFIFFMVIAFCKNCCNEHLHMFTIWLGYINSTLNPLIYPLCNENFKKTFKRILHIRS
T1 sequence (P70174 whole entry): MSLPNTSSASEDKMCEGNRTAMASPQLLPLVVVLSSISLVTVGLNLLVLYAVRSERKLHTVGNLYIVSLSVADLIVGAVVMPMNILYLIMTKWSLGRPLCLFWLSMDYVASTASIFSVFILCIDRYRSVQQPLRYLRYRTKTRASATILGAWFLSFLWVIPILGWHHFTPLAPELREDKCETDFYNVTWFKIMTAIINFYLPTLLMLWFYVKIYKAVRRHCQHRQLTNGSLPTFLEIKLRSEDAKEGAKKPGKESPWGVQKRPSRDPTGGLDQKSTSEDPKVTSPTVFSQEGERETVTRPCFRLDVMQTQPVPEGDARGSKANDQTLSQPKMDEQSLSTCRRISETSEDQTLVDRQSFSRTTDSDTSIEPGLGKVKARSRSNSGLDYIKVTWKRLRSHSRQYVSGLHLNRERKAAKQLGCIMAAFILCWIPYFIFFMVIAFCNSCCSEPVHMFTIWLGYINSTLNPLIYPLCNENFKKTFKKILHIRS

Compound	pIC50 [3]	also measured
CN1CCC(=C2c3ccccc3CCc3sc(C(=O)O)cc32)CC1.Cl [Compound 4, [4-(1-Methylpiperidin-4-ylidene)-9,10-dihydro-4H-1-thiabenzo[f]azulen-2-yl]carboxylic acid hydrochloride]		ED50 ([1]; ICR male mouse, oral administration, brain excised after 1 hour, 3H-pyrilamine binding in brain homogenate, larger = lower brain transfer, read-out: ID50 (the source's name)): 43.1 mg/kg; ID50 (mg/kg)/ ED50 (mg/kg) ([1]; ID50 of cerebral receptor binding test (Table 20) divided by ED50 of vascular hyperpermeability test (Table 19)): 62.5; ED50 [2]: 0.69 mg/kg
CCOC(=O)c1ccc2c(c1)C(=C1CCN(C)CC1)c1sccc1CC2 [Compound 115, Ethyl 4-(1-methylpiperidin-4-ylidene)-9,10-dihydro-4H-3-thiabenzo[f]azulene-6-carboxylate]	7.78	
COC(=O)Cc1ccc2c(c1)C(=C1CCN(C)CC1)c1ccsc1CO2 [Compound 116, Methyl[4-(1-methylpiperidin-4-ylidene)-4,10-dihydro-9-oxa-1-thiabenzo[f]azulen-6-yl]acetate hydrochloride]	8.40	
CN1CCC(=C2c3cc(C(=O)O)ccc3CCc3ccsc32)CC1 [Compound 121, 4-(1-Methylpiperidin-4-ylidene)-9,10-dihydro-4H-3-thiabenzo[f]azulene-6-carboxylic acid]	7.02	
OCCc1ccc2c(c1)C(=C1CCN(CCO)CC1)c1sccc1CO2 [Compound 122, 2-{4-[1-(2-Hydroxyethyl)piperidin-4-ylidene]-4,10-dihydro-9-oxa-3-thiabenzo[f]azulen-6-yl}ethanol]	7.87	
COC(=O)CCCc1ccc2c(c1)C(=C1CCN(C)CC1)c1sccc1CO2 [Compound 123, Methyl 4-[4-(1-methylpiperidin-4-ylidene)-4,10-dihydro-9-oxa-3-thiabenzo[f]azulen-6-yl]butyrate hydrochloride]	8.51	
CCCN1CCC(=C2c3ccccc3CCc3sc(C(=O)OCC)cc32)CC1 [Compound 133, Ethyl 4-(1-propylpiperidin-4-ylidene)-9,10-dihydro-4H-1-thiabenzo[f]azulene-2-carboxylate hydrochloride]	7.77	
CCN1CCC(=C2c3cc(CCCC(=O)OC)ccc3OCc3ccsc32)CC1 [Compound 141, Methyl 4-[4-(1-ethylpiperidin-4-ylidene)-4,10-dihydro-9-oxa-3-thiabenzo[f]azulen-6-yl]butyrate hydrochloride]	8.17	
CCOC(=O)Cc1ccc2c(c1)C(=C1CCN(C)CC1)c1sccc1CC2 [Compound 147, Ethyl[4-(1-methylpiperidin-4-ylidene)-9,10-dihydro-4H-3-thiabenzo[f]azulen-6-yl]acetate hydrochloride]	8.39	
CCOC(=O)C(C)(C)c1cc2c(s1)CCc1ccccc1C2=C1CCN(CC)CC1 [Compound 154, Ethyl 2-[4-(1-ethylpiperidin-4-ylidene)-9,10-dihydro-4H-1-thiabenzo[f]azulen-2-yl]-2-methylpropionate hydrochloride]	7.59	
COC(=O)CCCCc1ccc2c(c1)C(=C1CCN(C)CC1)c1sccc1CO2 [Compound 156, Methyl 5-[4-(1-methylpiperidin-4-ylidene)-4,10-dihydro-9-oxa-3-thiabenzo[f]azulen-6-yl]valerate hydrochloride]	8.02	
CN1CCC(=C2c3cc(CCCCC(=O)O)ccc3OCc3ccsc32)CC1 [Compound 157, 5-[4-(1-Methylpiperidin-4-ylidene)-4,10-dihydro-9-oxa-3-thiabenzo[f]azulen-6-yl]valeric acid]	7.04	
CCOC(=O)C=Cc1cc2c(s1)CCc1ccccc1C2=C1CCN(CC)CC1 [Compound 158, Ethyl 3-[4-(1-ethylpiperidin-4-ylidene)-9,10-dihydro-4H-1-thiabenzo[f]azulen-2-yl]acrylate]	7.33	
CCOC(=O)c1ccc2c(c1)C(=C1CCN(CC)CC1)c1sccc1CC2 [Compound 160, Ethyl 4-(1-ethylpiperidin-4-ylidene)-9,10-dihydro-4H-3-thiabenzo[f]azulene-6-carboxylate]	8.25	
COC(=O)Cc1ccc2c(c1)C(=C1CCN(CCCN3CCCCC3)CC1)c1sccc1CO2 [Compound 163, Methyl {4-[1-(3-piperidin-1-yl-propyl)piperidin-4-ylidene]-4,10-dihydro-9-oxa-3-thiabenzo[f]azulen-6-yl}acetate dihydrochloride]	7.04	
COC(=O)Cc1ccc2c(c1)C(=C1CCN(CCNC(N)=O)CC1)c1sccc1CO2 [Compound 174, Methyl {4-[1-(2-ureidoethyl)piperidin-4-ylidene]-4,10-dihydro-9-oxa-3-thiabenzo[f]azulen-6-yl}acetate]	7.96	
CC(OC(=O)OC1CCCCC1)OC(=O)c1cc2c(s1)CCc1ccccc1C2=C1CCN(C)CC1 (stereo not drawn) [Compound 176, 1-Cyclohexyloxycarbonyloxyethyl 4-(1-methylpiperidin-4-ylidene)-9,10-dihydro-4H-1-thiabenzo[f]azulene-2-carboxylate hydrochloride]	7.14	
CCOCCN1CCC(=C2c3ccccc3CCc3sc(C(=O)OCC)cc32)CC1 [Compound 181, Ethyl 4-[1-(2-ethoxyethyl)piperidin-4-ylidene]-9,10-dihydro-4H-1-thiabenzo[f]azulene-2-carboxylate hydrochloride]	7.89	
COC(=O)CCCc1ccc2c(c1)C(=C1CCN(CCCC(C)=O)CC1)c1sccc1CO2 [Compound 187, Methyl 4-{4-[1-(4-oxopentyl)piperidin-4-ylidene]-4,10-dihydro-9-oxa-3-thiabenzo[f]azulen-6-yl}butyrate hydrochloride]	8.06	
COC(=O)Cc1ccc2c(c1)C(=C1CCN(CCCNS(C)(=O)=O)CC1)c1sccc1CO2 [Compound 193, Methyl {4-[1-(3-methanesulfonylaminopropyl)piperidin-4-ylidene]-4,10-dihydro-9-oxa-3-thiabenzo[f]azulen-6-yl}acetate hydrochloride]	7.88	
COC(=O)CCc1ccc2c(c1)C(=C1CCN(CCNS(C)(=O)=O)CC1)c1sccc1CO2 [Compound 195, Methyl 3-{4-[1-(2-methanesulfonylaminoethyl)piperidin-4-ylidene]-4,10-dihydro-9-oxa-3-thiabenzo[f]azulen-6-yl}propionate hydrochloride]	7.93	
CN1CCC(=C2c3ccccc3CC(=O)c3sccc32)CC1 [Ketotifen, reference compound]		ED50 [2]: 0.54 mg/kg
